Measurements taken from US20190246658A1, “METHODS OF HANDLING PAPAYA” (AGROFRESH INC., priority 2013, published 2019).

Tests used:
Papayas ‘Golden’ [1] = test: Example 1: percentage of fruits with ideal internal pulp firmness (2.5-7.0 lbf); format: in vivo, papaya; settings: 100 ppb of MCP, ideal = between 2.5 and 7.0 lbf
Procedure: Papayas ‘Golden’ were harvested in Linhares—Espírito Santo—Brazil. The harvested fruits were packed in MAP Bags and put in cardboard boxes.
The appropriate weight of papayas was placed in each bag after harvest. Bags were placed in the same cardboard boxes used to export the fruits. Papayas then were cold stored at (11° C.) at the Laboratory.
(§1) The Test Protocol that was used was as follows. 36 MAP bags were packed. Each bag held approximately 3.8 kg (8.4 lb) of papayas. One such bag was packed in each cardboard box. Total weight of papayas in MAP bags was approximately 137 kg. Approximately 91 kg of papayas were placed into cardboard boxes identical to those used for the MAP bags.
(§2) The MAP-packaged papayas were packaged as follows: Nine fruits, approximately 3.8 kg were carefully placed into microperforated bags, and the bags were sealed by twisting the open side of the bag, folding down the twisted end, and placing a rubber band around the twisted and folded end of the bag.
All papayas were kept at cold temperature (11° C.) during 27 days and after that the fruits (packed in MAP bags or not) were put in room temperature (22° C.) during 8 days.
One day after harvest, when the papayas had around 25 lbf of average firmness, each treatment set was marked, placed in a hermetical chamber at cold temperature (11° C.). All chambers were of equal size and packed the same way. Treatment was for 12 hours. In the chambers for the 3 “MCP” treatment groups, at the beginning of the treatment period, SmartFresh™ were placed in the chamber. The amount of SmartFresh™ was chosen to achieve the indicated concentration of 1-methylcyclopropene in the atmosphere of the chamber.
For the Pulp Firmness evaluation two measurements where done, one for External Firmness and another for Internal Firmness. For External Firmness, the papayas had the skin removed with a peeler and the pulp firmness was measured with a Firmness Texture Analyzer (FTA) with a probe of 8 mm. For Internal Firmness, the papayas were cut transversally and a measurement close to the center of the fruit was taken with the FTA.
The desirable internal pulp firmness for consumption of papayas is between 2.5 and 7.0 lbf. The percentage of fruits with internal pulp firmness between 2.5 and 7.0 lbf was calculated.

Papayas ‘Golden’ [2] = test: Example 2 (yellow stage): weight loss; format: in vivo, papaya; settings: for Weight loss: 500 ppb of MCP
Procedure: A similar test to Example 1 but papayas are tested during their yellow stage. Papayas ‘Golden’ were harvested in Linhares—Espírito Santo—Brazil. The fruits were packed in MAP Bags and put in cardboard boxes.
The fruits were first left at room temperature during 3 days to reach yellow maturity stage.
After that the appropriate weight of papayas was placed in each bag after harvest. Bags were placed in the same cardboard boxes used to export the fruits. Papayas then were cold stored at (11° C.) at the Laboratory.
as §1, with “18” for “36”, “68” for “137”, “68” for “91”
as §2
All papayas were kept at cold temperature (11° C.) during 26 days and after that the fruits (packed in MAP bags or not) were put in room temperature (22° C.) during 8 days.
After the 3 days for maturation at room temperature, when the papayas had around 5 lbf of average firmness, each treatment set was marked, placed in a hermetical chamber at cold temperature (11° C.). All chambers were of equal size and packed the same way. Treatment was for 12 hr. In the chambers for the 2 “MCP” treatment groups, at the beginning of the treatment period, SmartFresh™ were placed in the chamber. The amount of SmartFresh™ was chosen to achieve the indicated concentration of 1-methylcyclopropene in the atmosphere of the chamber.
Weight loss was measured using the difference in weight observed in selected papayas from each treatment. These fruits were weighted before the cold storage and then the same fruits were weighted on the evaluations days.

CC1=CC1 [MCP, 1-methylcyclopropene]
Percentage of fruits with ideal internal pulp firmness (Papayas ‘Golden’ [1]; MAP bag, 27 days at 11° C. then 0 days @ 22° C.): 52.38%
Percentage of fruits with ideal internal pulp firmness (Papayas ‘Golden’ [1]; MAP bag, 27 days at 11° C. then 4 days @ 22° C.): 44.44%
Percentage of fruits with ideal internal pulp firmness (Papayas ‘Golden’ [1]; MAP bag, 27 days at 11° C. then 8 days @ 22° C.): 13.88%
Percentage of fruits with ideal internal pulp firmness (Papayas ‘Golden’ [1]; No Bag, 27 days at 11° C. then 0 days @ 22° C.): 1.19%
Percentage of fruits with ideal internal pulp firmness (Papayas ‘Golden’ [1]; No Bag, 27 days at 11° C. then 4 days @ 22° C.): 11.11%
Percentage of fruits with ideal internal pulp firmness (Papayas ‘Golden’ [1]; No Bag, 27 days at 11° C. then 8 days @ 22° C.): 58.33%
weight loss, in words (Papayas ‘Golden’ [2]; 1-MCP alone (no MAP)): elevated weight loss
Weight loss (Papayas ‘Golden’ [2]; MAP bag, 26 days at 11° C. then 0 days @ 22° C.): 0.68%
Weight loss (Papayas ‘Golden’ [2]; MAP bag, 26 days at 11° C. then 4 days @ 22° C.): 1.21%
Weight loss (Papayas ‘Golden’ [2]; MAP bag, 26 days at 11° C. then 8 days @ 22° C.): 2.09%
Weight loss (Papayas ‘Golden’ [2]; No Bag, 26 days at 11° C. then 0 days @ 22° C.): 5.42%
Weight loss (Papayas ‘Golden’ [2]; No Bag, 26 days at 11° C. then 4 days @ 22° C.): 9.07%
Weight loss (Papayas ‘Golden’ [2]; No Bag, 26 days at 11° C. then 8 days @ 22° C.): 16.53%
